Source: article PMC4162403 (Angewandte Chemie (International ed. in English), 2010)

Target: TNF-α (Homo sapiens, UniProt P01375)
Assay: inhibition of TNFR-1 binding to TNF-α, side-by-side experiment
Conditions: read-out: % inhibition at 10 μM

Sequence of TNF-α (P01375 77-233): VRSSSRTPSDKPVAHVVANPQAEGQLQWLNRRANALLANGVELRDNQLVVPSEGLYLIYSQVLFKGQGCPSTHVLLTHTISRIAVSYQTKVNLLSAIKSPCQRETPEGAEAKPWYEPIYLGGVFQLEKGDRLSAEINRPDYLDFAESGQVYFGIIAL

Cc1cc2occ(CN(C)CCN(C)Cc3cn(-c4cccc(C(F)(F)F)c4)c4ccccc34)c(=O)c2cc1C [SPD304]
inhibition at 10 µM: 34%
